Experimental data published in patent EP4567032A1, “KIF18A INHIBITOR COMPOUND, AND PHARMACEUTICAL COMPOSITION AND PREPARATION METHOD THEREFOR AND USE THEREOF” (Changchun Genescience Pharmaceutical Co., Ltd., priority 2022, dated 2024).

Experiments:
OVCAR-3 cells = assay: imaging-based nuclear count analysis (NCA) in OVCAR-3 cells; format: cell-based; settings: Homo sapiens, 96 h, cultured 4 days, Hoechst 33342 nuclear count, 0.1% DMSO
Experimental: Test name: imaging-based nuclear count analysis (NCA) in OVCAR-3 cells
• a) When the cell confluence reached 80%-90%, the cells were treated. • b) The cells were resuspended in a medium and then counted and diluted at a desired density. • c) A cell suspension containing appropriate cells was added to the 384-well plate at 30 µL/well: 600 cells/well.
• a) 30 µL of 8% fixative (final concentration 4%) was added and the plate was incubated at room temperature for 30 min. • b) The plate was centrifuged at 1000RPM for 30s. • c) The plate was washed twice with 60 µl/well PBS. • d) After immobilization, the cells were permeabilized and stained in 60 µL of a wash buffer containing 2 µg/mL Hoechst 33342 DNA dye (1% BSA, 0.2% Triton X-100, 1X PBS). • e) The plate was sealed and incubated at room temperature in the dark for 1 h. • f) It was washed with PBS 3 times. • g) 50µLPBS/well was added and the plate was scanned using HCS. • h) Data acquisition and detection
High-reading control wells: cells + 30 nL DMSO; low-reading control wells: 10 µM AM-5308.
IC50 (nM) was calculated using GraphPad Prism 8 software and the effect-dose curves of the compound were plotted. Table 1 Bioactivity data of the compound of the present application

KIF18A = biological target: T1, KIF18A (Homo sapiens, UniProt Q8NI77); assay: KIF18A enzyme activity test (ADP Glo); format: biochemical; settings: ADP Glo luminescence, 60 min reaction at room temperature, 1% DMSO
T1 sequence (Q8NI77 1-898): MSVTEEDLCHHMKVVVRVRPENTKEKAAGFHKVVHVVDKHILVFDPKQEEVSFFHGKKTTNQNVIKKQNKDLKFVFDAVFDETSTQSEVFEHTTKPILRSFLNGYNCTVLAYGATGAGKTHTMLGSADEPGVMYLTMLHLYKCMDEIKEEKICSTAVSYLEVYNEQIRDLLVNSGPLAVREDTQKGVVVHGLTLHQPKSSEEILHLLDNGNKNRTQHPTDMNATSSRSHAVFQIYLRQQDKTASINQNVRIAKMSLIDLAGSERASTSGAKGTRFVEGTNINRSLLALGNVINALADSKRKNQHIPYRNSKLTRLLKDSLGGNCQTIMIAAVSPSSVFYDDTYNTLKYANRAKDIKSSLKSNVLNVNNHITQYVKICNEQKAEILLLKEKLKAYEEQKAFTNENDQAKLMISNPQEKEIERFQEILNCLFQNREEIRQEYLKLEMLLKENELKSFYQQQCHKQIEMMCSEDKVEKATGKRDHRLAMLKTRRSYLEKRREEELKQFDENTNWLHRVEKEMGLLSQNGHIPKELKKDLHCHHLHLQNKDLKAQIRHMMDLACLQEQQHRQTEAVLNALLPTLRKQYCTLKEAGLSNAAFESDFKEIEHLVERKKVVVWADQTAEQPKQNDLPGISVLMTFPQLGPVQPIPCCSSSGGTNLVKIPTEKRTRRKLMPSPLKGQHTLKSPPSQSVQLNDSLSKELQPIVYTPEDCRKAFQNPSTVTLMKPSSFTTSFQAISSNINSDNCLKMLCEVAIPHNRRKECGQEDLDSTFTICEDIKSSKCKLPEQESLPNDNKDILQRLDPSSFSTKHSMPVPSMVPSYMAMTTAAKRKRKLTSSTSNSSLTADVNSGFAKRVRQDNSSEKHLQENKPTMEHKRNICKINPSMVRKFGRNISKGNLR
Experimental: Test name: KIF18A enzyme activity test
• 1) Compound dilution and treatment: The final concentrations of AM-5308: 10000, 3333.3, 1111.1, 370.3, 123.4, 41.1, 13.7, 4.5, 1.5, 0.5 nM, the final testing concentrations of the testing compound: 10000, 3333.3, 1111.1, 370.3, 123.4, 41.1, 13.7, 4.5, 1.5 and 0.5 nM. • 2) To each well of the reaction plate, 100 nL of the diluted compound stock solution was transferred using Echo 655. The final concentration of DMSO was 1%. • 3) The reaction plate was sealed with a sealing membrane and centrifuged at 1000g for 1 min. • 4) A 2× enzyme solution was prepared with 1× reaction buffer. • 5) To each well of the reaction plate, 5 µL of 2×enzyme solution was added. The plate was sealed with a sealing membrane, centrifuged at 1000g for 1 min and left at room temperature for 15 min. • 6) A 2× ATP solution was prepared with 1× reaction buffer. • 7) To the reaction plate, 5 µL of 2×ATP solution was added, the plate was centrifuged at 1000g for 1 min, and the reaction was started. • 8) The system was allowed to react at room temperature for 60 min. • 9) 10 µL of ADP Glo reagent was added. The system was centrifuged at 1000 g for 1 min and incubated at room temperature for 60 min. • 10) 20 µL of kinase detection reagent was added. The system was centrifuged at 1000 g for 1 min, and incubated at room temperature for 60 min. • 11) The system was centrifuged at 1000 g for 1 min. • 12) The luminescence signals were read on Envision 2104.
The inhibition percentage is calculated as follows: %inhibition = 100−(Signalcmpd−SignalAve_PC)/(SignalAve_VC−SignalAve_PC) × 100 [formula] • Signalcmpd: Average value of the test compound on the reaction plate. • SignalAve_PC: Average value of the positive control (AM-5308) on the reaction plate. • SignalAve_VC: Average value of the negative control (DMSO) on the reaction plate.
IC50 was calculated and the dose-effect curve was fit: The IC50 of the compound was obtained by non-linear fitting formula with GraphPad 8.0.
Z factor > 0.5; S/B > 2. Table 2 Enzyme activity data for the compound of the present application

Row | SMILES | IC50 (OVCAR-3 cells) [nM] | IC50 (KIF18A) [nM]
1 | COc1ccc2c(NC(=O)c3ccc(NS(=O)(=O)CCO)cc3N3CCC4(CC3)CC4)cccc2c1 [Compound 1, 2-{6-azaspiro[2.5]octan-6-yl}-4-(2-hydroxyethanesulfonylamino)-N-(6-methoxynaphthalen-1-yl)benzamide] | 163 | 21.2
2 | O=C(Nc1cccc2c1nc1n2CCCC1)c1ccc(NS(=O)(=O)CCO)cc1N1CCC2(CC1)CC2 [Compound 22, 4-(2-hydroxyethanesulfonylamino)-2-(6-azaspiro[2.5]octan-6-yl)-N-(benzo[4,5]imidazo[1,2-a]piperidin-6-yl)benzamide] | 143 | 21.3
3 | O=C(Nc1cccc2c1nc1n2CCC1)c1ccc(NS(=O)(=O)CCO)cc1N1CCC2(CC1)CC2 [Compound 36, N-(2,3-dihydro-1H-benzo[d]pyrrolo[1,2-a]imidazol-5-yl)-4-(2-hydroxyethanesulfonylamino)-2-(6-azaspiro[2.5]octan-6-yl)benzamide] | 72.2 | 13.7
4 | O=C(Nc1cccc2c1nc1n2CCC1(F)F)c1ccc(NS(=O)(=O)CCO)cc1N1CCC2(CC1)CC2 [Compound 94, N-(3,3-difluoro-2,3-dihydro-1H-benzo[d]pyrrolo[1,2-a]imidazol-5-yl)-4-(2-hydroxyethanesulfonylamino)-2-(6-azaspiro[2.5]octan-6-yl)benzamide] | 36.1 | 15.1
5 | O=C(Nc1cccc2c1nc1n2C2CCC1C2)c1ccc(NS(=O)(=O)CCO)cc1N1CCC2(CC1)CC2 (stereo not shown) [Compound 96, 4-(2-hydroxyethanesulfonylamino)-2-(6-azaspiro[2.5]octan-6-yl)-N-(1,2,3,4-tetrahydro-1,4-methylenebenzo[4,5]imidazo[1,2-a]pyridin-6-yl)benzamide] | 89.7 | 8.97
6 | O=C(Nc1cccc2c1nc1n2[C@H]2CC[C@@H]1C2)c1ccc(NS(=O)(=O)CCO)cc1N1CCC2(CC1)CC2 [Compound 96a, 4-(2-hydroxyethanesulfonylamino) -2-(6-azaspiro[2.5]octan-6-yl)-N-((1S,4R)-1,2,3,4-tetrahydro-1,4-methylenebenzo[4,5]imidazo [1,2-a]pyridin-6-yl)benzamide] | 60.9 | 5.35
7 | O=C(Nc1cccc2c1nc1n2CCCCC1)c1ccc(NS(=O)(=O)CCO)cc1N1CCC2(CC1)CC2 [Compound 97, 4-(2-hydroxyethanesulfonylamino)-2-(6-azaspiro[2.5]octan-6-yl)-N-(7,8,9,10-tetrahydro-6H-benzo[4,5]imidazo[1,2-a]azepin-4-yl)benzamide] | 58.8 | 9.09
8 | CC1CCCn2c1nc1c(NC(=O)c3ccc(NS(=O)(=O)CCO)cc3N3CCC4(CC3)CC4)cccc12 (stereo not shown) [Compound 98, 4-(2-hydroxyethanesulfonylamino)-N-(4-methyl-1,2,3,4-tetrahydrobenzo[4,5]imidazo[1,2-a]pyridin-6-yl)-2-(6-azaspiro[2.5]octan-6-yl)benzamide] | 170 | 26.5
